{"source": "patent US12435060B2", "about": "“Acylamino bridged heterocyclic compound, and composition and application thereof” (BEIJING SCITECH-MQ PHARMACEUTICALS LIMITED, priority 2019, dated 2025)", "test_system": "HT29 cells", "test": "Inhibition of cell necrosis (CCK8 method), induced programmed necrosis of HT29 cells", "assay_type": "cell-based", "settings": "Homo sapiens, HT-29; rescue from necrosis induced by TNF-α 20 ng/mL, AT-406 1 μM, Z-VAD-FMK 20 μM; 16-20 hours; CCK-8, OD 450 nm", "method_in_brief": "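Rescue from programmed necrosis was scored by CCK-8 absorbance at 450 nm after 16-20 h of TNF-α (20 ng/mL), AT-406 (1 μM) and Z-VAD-FMK (20 μM) at 37 °C, 5% CO2. HT29 cells had received compound 30 min earlier across nine 4-fold dilutions (top 25000 nM final). IC50 came from % inhibition relative to uninduced and induced-only wells.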"}
{"smiles": "CC(C)(O)CCCOc1ccc(F)c(-c2ccnc(NC(=O)c3nnc(Cc4ccccc4F)[nH]3)c2)c1", "note": "[Example 313, 5-(2-fluorobenzyl)-N-(4-(2-fluoro-5-((4-hydroxy-4-methylpentyl)oxy)phenyl)pyridin-2-yl)-4H-1,2,4-triazole-3-carboxamide]", "values": [{"measurement": "IC50", "result": "100 to 1000", "unit": "nM"}]}
{"smiles": "COc1ccc(C)c(-c2ccnc(NC(=O)c3nnc(Cc4ccccc4)[nH]3)c2)c1", "note": "[Example 101, 5-benzyl-N-(4-(5-methoxy-2-methylphenyl)pyridin-2-yl)-4H-1,2,4-triazole-3-carboxamide]", "values": [{"measurement": "IC50", "result": "100 to 1000", "unit": "nM"}]}
{"smiles": "O=C(Nc1cc(-c2cc(OCC3CCOCC3)ccc2C(F)(F)F)ccn1)c1nnc(Cc2ccccc2F)[nH]1", "note": "[Example 300, 5-(2-fluorobenzyl)-N-(4-(5-((tetrahydro-2H-pyran-4-yl)methoxy)-2-(trifluoromethyl)phenyl)pyridin-2-yl)-4H-1,2,4-triazole-3-carboxamide]", "values": [{"measurement": "IC50", "result": "≤ 100", "unit": "nM"}]}
{"smiles": "O=C(Nc1cc(-c2cc(OCCC3CCOCC3)ccc2Cl)ncn1)c1nnc(CC2CCCC2)[nH]1", "note": "[Example 472, N-(6-(2-chloro-5-(2-(tetrahydro-2H-pyran-4-yl)ethoxy)phenyl)pyrimidin-4-yl)-5-(cyclopentylmethyl)-4H-1,2,4-triazole-3-carboxamide]", "values": [{"measurement": "IC50", "result": "≤ 100", "unit": "nM"}]}
{"smiles": "Cc1ccc(OCCCOC(C)C)cc1-c1ccnc(NC(=O)c2nnc(Cc3ccccc3)[nH]2)c1", "note": "[Example 83, 5-benzyl-N-(4-(5-(3-isopropoxypropoxy)-2-methylphenyl)pyridin-2-yl)-4H-1,2,4-triazole-3-carboxamide]", "values": [{"measurement": "IC50", "result": "≤ 100", "unit": "nM"}]}
{"smiles": "O=C(Nc1cc(-c2cc(OCCC3CCOCC3)ccc2C(F)(F)F)ccn1)c1nnc(Cc2ccc(F)cc2)[nH]1", "note": "[Example 308, 5-(4-fluorobenzyl)-N-(4-(5-(2-(tetrahydro-2H-pyran-4-yl)ethoxy)-2-(trifluoromethyl)phenyl)pyridin-2-yl)-4H-1,2,4-triazole-3-carboxamide]", "values": [{"measurement": "IC50", "result": "≤ 100", "unit": "nM"}]}
{"smiles": "O=C(Nc1cc(-c2cc(OCCCCCO)ccc2Cl)ccn1)c1nnc(CC2CCCCC2)[nH]1", "note": "[Example 378, N-(4-(2-chloro-5-((5-hydroxypentyl)oxy)phenyl)pyridin-2-yl)-5-(cyclohexylmethyl)-4H-1,2,4-triazole-3-carboxamide]", "values": [{"measurement": "IC50", "result": "≤ 100", "unit": "nM"}]}
{"smiles": "CCC(O)(CC)CCCOc1ccc(Cl)c(-c2cc(NC(=O)c3nnc(Cc4ccccc4F)[nH]3)ncc2Cl)c1", "note": "[Example 417, N-(5-chloro-4-(2-chloro-5-((4-ethyl-4-hydroxyhexyl)oxy)phenyl)pyridin-2-yl)-5-(2-fluorobenzyl)-4H-1,2,4-triazole-3-carboxamide]", "values": [{"measurement": "IC50", "result": "100 to 1000", "unit": "nM"}]}
{"smiles": "Cc1ccc(OCCN(C)C)cc1-c1ccnc(NC(=O)c2nnc(Cc3ccccc3)[nH]2)c1", "note": "[Example 134, 5-benzyl-N-(4-(5-(2-(dimethylamino)ethoxy)-2-methylphenyl)pyridin-2-yl)-4H-1,2,4-triazole-3-carboxamide]", "values": [{"measurement": "IC50", "result": "100 to 1000", "unit": "nM"}]}
{"smiles": "O=C(Nc1cc(-c2cc(OCC3CCOCC3)ccc2C(F)(F)F)ncn1)c1nnc(CC2CCCC2)[nH]1", "note": "[Example 456, 5-(cyclopentylmethyl)-N-(6-(5-((tetrahydro-2H-pyran-4-yl)methoxy)-2-(trifluoromethyl)phenyl)pyrimidin-4-yl)-4H-1,2,4-triazole-3-carboxamide]", "values": [{"measurement": "IC50", "result": "≤ 100", "unit": "nM"}]}
{"smiles": "Cc1ccc(OCC2CCOCC2)cc1-c1cc(NC(=O)c2nnc(Cc3ccccc3F)[nH]2)ncn1", "note": "[Example 442, 5-(2-fluorobenzyl)-N-(6-(2-methyl-5-((tetrahydro-2H-pyran-4-yl)methoxy)phenyl)pyrimidin-4-yl)-4H-1,2,4-triazole-3-carboxamide]", "values": [{"measurement": "IC50", "result": "≤ 100", "unit": "nM"}]}
{"smiles": "O=C(Nc1cc(-c2cccc3c2CCC3)ccn1)c1nnc(Cc2ccccc2)[nH]1", "note": "[Example 39, 5-benzyl-N-(4-(2,3-dihydro-1H-inden-4-yl)pyridin-2-yl)-4H-1,2,4-triazole-3-carboxamide]", "values": [{"measurement": "IC50", "result": "1000 to 10000", "unit": "nM"}]}
{"smiles": "Cc1ccc(OCCCC(C)(C)O)cc1-c1ccnc(NC(=O)c2nnc(CC(C)(C)C)[nH]2)c1", "note": "[Example 170, N-(4-(5-((4-hydroxy-4-methylpentyl)oxy)-2-methylphenyl)pyridin-2-yl)-5-neopentyl-4H-1,2,4-triazole-3-carboxamide]", "values": [{"measurement": "IC50", "result": "100 to 1000", "unit": "nM"}]}
{"smiles": "Cc1ccc(OCCC2CCCCO2)cc1-c1ccnc(NC(=O)c2nnc(Cc3ccccc3)[nH]2)c1", "note": "(centres unmarked) [Example 227, 5-benzyl-N-(4-(2-methyl-5-(2-(tetrahydro-2H-pyran-2-yl)ethoxy)phenyl)pyridin-2-yl)-4H-1,2,4-triazole-3-carboxamide]", "values": [{"measurement": "IC50", "result": "≤ 100", "unit": "nM"}]}
{"smiles": "CC(C)(O)CCCCOc1ccc(Cl)c(-c2cc(NC(=O)c3nnc(Cc4ccccc4F)[nH]3)ncc2Cl)c1", "note": "[Example 420, N-(5-chloro-4-(2-chloro-5-((5-hydroxyl-5-methylhexyl)oxy)phenyl)pyridin-2-yl)-5-(2-fluorobenzyl)-4H-1,2,4-triazole-3-carboxamide]", "values": [{"measurement": "IC50", "result": "100 to 1000", "unit": "nM"}]}
{"smiles": "Cc1ccc(OC(C)C)cc1-c1ccnc(NC(=O)c2nnc(Cc3ccccc3)[nH]2)c1", "note": "[Example 114, 5-benzyl-N-(4-(5-isopropoxy-2-methylphenyl)pyridin-2-yl)-4H-1,2,4-triazole-3-carboxamide]", "values": [{"measurement": "IC50", "result": "100 to 1000", "unit": "nM"}]}
{"smiles": "O=C(Nc1cc(-c2cccc3c2CCCO3)ccn1)c1nnc(Cc2ccccc2)[nH]1", "note": "[Example 40, 5-benzyl-N-(4-(chroman-5-yl)pyridin-2-yl)-4H-1,2,4-triazole-3-carboxamide]", "values": [{"measurement": "IC50", "result": "1000 to 10000", "unit": "nM"}]}
{"smiles": "O=C(Nc1cc(-c2cc(OCCC3CCOCC3)ccc2F)c(Cl)cn1)c1nnc(CC2CCCCC2)[nH]1", "note": "[Example 334, N-(5-chloro-4-(2-fluoro-5-(2-(tetrahydro-2H-pyran-4-yl)ethoxy)phenyl)pyridin-2-yl)-5-(cyclohexylmethyl)-4H-1,2,4-triazole-3-carboxamide]", "values": [{"measurement": "IC50", "result": "100 to 1000", "unit": "nM"}]}
{"smiles": "O=C(Nc1cc(-c2cc(OCCCCO)ccc2Cl)ccn1)c1nnc(CC2CCCC2)[nH]1", "note": "[Example 373, N-(4-(2-chloro-5-(4-hydroxybutoxy)phenyl)pyridin-2-yl)-5-(cyclopentylmethyl)-4H-1,2,4-triazole-3-carboxamide]", "values": [{"measurement": "IC50", "result": "≤ 100", "unit": "nM"}]}
{"smiles": "CCOc1ccc(C)c(-c2cncc(NC(=O)c3nnc(Cc4ccccc4)[nH]3)c2)c1", "note": "[Example 197, 5-benzyl-N-(5-(5-ethoxy-2-methylphenyl)pyridin-3-yl)-4H-1,2,4-triazole-3-carboxamide]", "values": [{"measurement": "IC50", "result": "> 10000", "unit": "nM"}]}
{"smiles": "CC(C)(C)OCCOc1ccc(C(F)(F)F)c(-c2ccnc(NC(=O)c3nnc(Cc4ccccc4)[nH]3)c2)c1", "note": "[Example 291, 5-benzyl-N-(4-(5-(2-(tert-butoxy)ethoxy)-2-(trifluoromethyl)phenyl)pyridin-2-yl)-4H-1,2,4-triazole-3-carboxamide]", "values": [{"measurement": "IC50", "result": "≤ 100", "unit": "nM"}]}
{"smiles": "Cc1cc(-c2ccnc(NC(=O)c3nnc(Cc4ccccc4)[nH]3)c2)n(C)n1", "note": "[Example 27, 5-benzyl-N-(4-(1,3-dimethyl-1H-pyrazol-5-yl)pyridin-2-yl)-4H-1,2,4-triazole-3-carboxamide]", "values": [{"measurement": "IC50", "result": "1000 to 10000", "unit": "nM"}]}
{"smiles": "Cc1ccc(C(=O)CC2CCOCC2)cc1-c1ccnc(NC(=O)c2nnc(CC3CCCC3)[nH]2)c1", "note": "[Example 486, 5-(cyclopentylmethyl)-N-(4-(2-methyl-5-(2-(tetrahydro-2H-pyran-4-yl)acetyl)phenyl)pyridin-2-yl)-4H-1,2,4-triazole-3-carboxamide]", "values": [{"measurement": "IC50", "result": "≤ 100", "unit": "nM"}]}
{"smiles": "CCC(O)(CC)CCCOc1ccc(F)c(-c2cc(NC(=O)c3nnc(Cc4ccccc4F)[nH]3)ncc2Cl)c1", "note": "[Example 323, N-(5-chloro-4-(5-((4-ethyl-4-hydroxyhexyl)oxy)-2-fluorophenyl)pyridin-2-yl)-5-(2-fluorobenzyl)-4H-1,2,4-triazole-3-carboxamide]", "values": [{"measurement": "IC50", "result": "100 to 1000", "unit": "nM"}]}
{"smiles": "COCCCSc1ccc(C)c(-c2ccnc(NC(=O)c3nnc(Cc4ccccc4)[nH]3)c2)c1", "note": "[Example 59, 5-benzyl-N-(4-(5-(3-methoxypropylthio)-2-methylphenyl)pyridin-2-yl)-4H-1,2,4-triazole-3-carboxamide]", "values": [{"measurement": "IC50", "result": "≤ 100", "unit": "nM"}]}
{"smiles": "CCC(O)(CC)CCCOc1ccc(C(F)(F)F)c(-c2ccnc(NC(=O)c3nnc(CC4CCCCC4)[nH]3)c2)c1", "note": "[Example 263, 5-(cyclohexylmethyl)-N-(4-(5-((4-ethyl-4-hydroxyhexyl)oxy)-2-(trifluoromethyl)phenyl)pyridin-2-yl)-4H-1,2,4-triazole-3-carboxamide]", "values": [{"measurement": "IC50", "result": "≤ 100", "unit": "nM"}]}
{"smiles": "COc1ccc(C(C)C)cc1-c1ccnc(NC(=O)c2nnc(Cc3ccccc3)[nH]2)c1", "note": "[Example 17, 5-benzyl-N-(4-(5-isopropyl-2-methoxyphenyl)pyridin-2-yl)-4H-1,2,4-triazole-3-carboxamide]", "values": [{"measurement": "IC50", "result": "> 10000", "unit": "nM"}]}
{"smiles": "Cc1ccc(OCC2CCOC2)cc1-c1ccnc(NC(=O)c2nnc(Cc3ccccc3)[nH]2)c1", "note": "(centres unmarked) [Example 122, 5-benzyl-N-(4-(2-methyl-5-((tetrahydrofuran-3-yl)methoxy)phenyl)pyridin-2-yl)-4H-1,2,4-triazole-3-carboxamide]", "values": [{"measurement": "IC50", "result": "≤ 100", "unit": "nM"}]}
{"smiles": "CC(C)(C)OCCOc1ccc(C=O)c(-c2ccnc(NC(=O)c3nnc(Cc4ccccc4)[nH]3)c2)c1", "note": "[Example 195, 5-benzyl-N-(4-(5-(2-(tert-butoxy)ethoxy)-2-formylphenyl)pyridin-2-yl)-4H-1,2,4-triazole-3-carboxamide]", "values": [{"measurement": "IC50", "result": "≤ 100", "unit": "nM"}]}
{"smiles": "CC(C)(C)OCCOc1ccc(C(F)(F)F)c(-c2ccnc(NC(=O)c3nnc(Cc4ccccc4F)[nH]3)c2)c1", "note": "[Example 292, 5-(2-fluorobenzyl)-N-(4-(5-(2-(tert-butoxy)ethoxy)-2-(trifluoromethyl)phenyl)pyridin-2-yl)-4H-1,2,4-triazole-3-carboxamide]", "values": [{"measurement": "IC50", "result": "≤ 100", "unit": "nM"}]}
{"smiles": "CC(C)(O)CCCCOc1ccc(Cl)c(-c2cc(NC(=O)c3nnc(CC4CCCCC4)[nH]3)ncc2Cl)c1", "note": "[Example 421, N-(5-chloro-4-(2-chloro-5-((5-hydroxyl-5-methylhexyl)oxy)phenyl)pyridin-2-yl)-5-(cyclohexylmethyl)-4H-1,2,4-triazole-3-carboxamide]", "values": [{"measurement": "IC50", "result": "100 to 1000", "unit": "nM"}]}
{"smiles": "O=C(Nc1cc(-c2cc(OCCC3CCOCC3)ccc2Cl)ccn1)c1nnc(CC2CCCC2)[nH]1", "note": "[Example 405, N-(4-(2-chloro-5-(2-(tetrahydro-2H-pyran-4-yl)ethoxy)phenyl)pyridin-2-yl)-5-(cyclopentylmethyl)-4H-1,2,4-triazole-3-carboxamide]", "values": [{"measurement": "IC50", "result": "≤ 100", "unit": "nM"}]}
